Columns and labels:
Test in all cases: KINOMEscan
Type in all cases: binding
EPHA8 = EPHA8 (Homo sapiens (Human), UniProt P29322); conditions: read-out: percent control
Source text: (§1) Example 2. In Vitro Kinase Selectivity Profiling of the Compounds of the Present Disclosure

PAK2 = PAK2 (Homo sapiens (Human), UniProt Q13177); conditions: read-out: percent control
Source text: as §1

[1] = target: ABL1(E255K)-phosphorylated (Homo sapiens (Human), UniProt P00519, E255K); conditions: read-out: percent control
Source text: as §1

TAOK2 = TAOK2 (Homo sapiens (Human), UniProt Q9UL54); conditions: read-out: percent control
Source text: as §1

EPHA3 = EPHA3 (Homo sapiens (Human), UniProt P29320); conditions: read-out: percent control
Source text: as §1

RAF1 = RAF1 (Homo sapiens (Human), UniProt P04049); conditions: read-out: percent control
Source text: as §1

EGFR(G719C) = EGFR(G719C) (Homo sapiens (Human), UniProt P00533, G719C); conditions: read-out: percent control
Source text: as §1

EGFR(L858R) = EGFR(L858R) (Homo sapiens (Human), UniProt P00533, L858R); conditions: read-out: percent control
Source text: as §1

PIK3CD = PIK3CD (Homo sapiens (Human), UniProt O00329); conditions: read-out: percent control
Source text: as §1

SIK2 = SIK2 (Homo sapiens (Human), UniProt Q9H0K1); conditions: read-out: percent control
Source text: as §1

CAMK2B = CAMK2B (Homo sapiens (Human), UniProt Q13554); conditions: read-out: percent control
Source text: as §1

HIPK2 = HIPK2 (Homo sapiens (Human), UniProt Q9H2X6); conditions: read-out: percent control
Source text: as §1

NLK = NLK (Homo sapiens (Human), UniProt Q9UBE8); conditions: read-out: percent control
Source text: as §1

BRAF = BRAF (Homo sapiens (Human), UniProt P15056); conditions: read-out: percent control
Source text: as §1

PDPK1 = PDPK1 (Homo sapiens (Human), UniProt O15530); conditions: read-out: percent control
Source text: as §1

[2] = target: EGFR(L747-E749del, A750P) (Homo sapiens (Human), UniProt P00533, A750P/DEL747-749); conditions: read-out: percent control
Source text: as §1

PDGFRA = PDGFRA (Homo sapiens (Human), UniProt P16234); conditions: read-out: percent control
Source text: as §1

MST3 = MST3 (Homo sapiens (Human), UniProt Q9Y6E0); conditions: read-out: percent control
Source text: as §1

MARK4 = MARK4 (Homo sapiens (Human), UniProt Q96L34); conditions: read-out: percent control
Source text: as §1

LATS1 = LATS1 (Homo sapiens (Human), UniProt O95835); conditions: read-out: percent control
Source text: as §1

PRKD1 = PRKD1 (Homo sapiens (Human), UniProt Q15139); conditions: read-out: percent control
Source text: as §1

PAK4 = PAK4 (Homo sapiens (Human), UniProt O96013); conditions: read-out: percent control
Source text: as §1

SRPK2 = SRPK2 (Homo sapiens (Human), UniProt P78362); conditions: read-out: percent control
Source text: as §1

PRP4 = PRP4 (Homo sapiens (Human), UniProt Q13523); conditions: read-out: percent control
Source text: as §1

ICK = ICK (Homo sapiens (Human), UniProt Q9UPZ9); conditions: read-out: percent control
Source text: as §1

CHEK2 = CHEK2 (Homo sapiens (Human), UniProt O96017); conditions: read-out: percent control
Source text: as §1

NEK2 = NEK2 (Homo sapiens (Human), UniProt P51955); conditions: read-out: percent control
Source text: as §1

PIM1 = PIM1 (Homo sapiens (Human), UniProt P11309); conditions: read-out: percent control
Source text: as §1

LRRK2(G20195) = LRRK2(G20195) (Homo sapiens (Human), UniProt Q5S007, G2019S); conditions: read-out: percent control
Source text: as §1

MYO3A = MYO3A (Homo sapiens (Human), UniProt Q8NEV4); conditions: read-out: percent control
Source text: as §1

SIK = SIK (Homo sapiens (Human), UniProt P57059); conditions: read-out: percent control
Source text: as §1

STK16 = STK16 (Homo sapiens (Human), UniProt O75716); conditions: read-out: percent control
Source text: as §1

LIMK1 = LIMK1 (Homo sapiens (Human), UniProt P53667); conditions: read-out: percent control
Source text: as §1

DCAMKL3 = DCAMKL3 (Homo sapiens (Human), UniProt Q9C098); conditions: read-out: percent control
Source text: as §1

MEK2 = MEK2 (Homo sapiens (Human), UniProt P36507); conditions: read-out: percent control
Source text: as §1

PIP5K2B = PIP5K2B (Homo sapiens (Human), UniProt P78356); conditions: read-out: percent control
Source text: as §1

CDKL5 = CDKL5 (Homo sapiens (Human), UniProt O76039); conditions: read-out: percent control
Source text: as §1

FLT3(ITD, F691L) = conditions: 1 μM
Source text: as §1

PIP5K1A = PIP5K1A (Homo sapiens (Human), UniProt Q99755); conditions: read-out: percent control
Source text: as §1

CDKL2 = CDKL2 (Homo sapiens (Human), UniProt Q92772); conditions: read-out: percent control
Source text: as §1

PIK3CD, sequence (O00329 whole entry): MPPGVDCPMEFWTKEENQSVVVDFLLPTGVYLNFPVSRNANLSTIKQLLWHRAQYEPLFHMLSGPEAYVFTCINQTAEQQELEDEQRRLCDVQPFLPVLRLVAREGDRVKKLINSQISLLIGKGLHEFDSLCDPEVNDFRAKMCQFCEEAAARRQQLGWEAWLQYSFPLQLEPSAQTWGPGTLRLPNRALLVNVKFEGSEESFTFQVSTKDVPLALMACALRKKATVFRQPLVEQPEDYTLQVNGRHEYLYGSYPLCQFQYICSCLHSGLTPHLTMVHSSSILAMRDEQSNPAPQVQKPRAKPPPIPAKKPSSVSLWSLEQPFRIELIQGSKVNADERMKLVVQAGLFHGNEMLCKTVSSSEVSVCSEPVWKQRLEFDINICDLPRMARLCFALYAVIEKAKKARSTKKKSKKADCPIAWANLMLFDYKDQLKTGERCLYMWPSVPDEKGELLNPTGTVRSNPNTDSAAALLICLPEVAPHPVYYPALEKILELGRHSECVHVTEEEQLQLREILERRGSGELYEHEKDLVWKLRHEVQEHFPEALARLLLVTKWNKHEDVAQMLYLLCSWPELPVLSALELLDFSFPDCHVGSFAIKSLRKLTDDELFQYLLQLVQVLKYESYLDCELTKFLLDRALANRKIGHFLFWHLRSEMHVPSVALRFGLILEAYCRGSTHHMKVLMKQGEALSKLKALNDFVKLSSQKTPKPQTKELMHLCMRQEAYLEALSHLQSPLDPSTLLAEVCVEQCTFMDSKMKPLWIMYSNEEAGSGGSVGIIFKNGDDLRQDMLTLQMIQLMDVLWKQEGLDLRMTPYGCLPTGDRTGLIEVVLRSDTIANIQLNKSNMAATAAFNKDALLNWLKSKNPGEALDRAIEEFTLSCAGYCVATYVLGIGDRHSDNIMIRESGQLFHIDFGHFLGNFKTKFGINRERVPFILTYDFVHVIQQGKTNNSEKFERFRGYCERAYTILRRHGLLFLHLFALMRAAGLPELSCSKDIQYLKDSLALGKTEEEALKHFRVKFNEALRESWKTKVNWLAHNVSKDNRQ
LIMK1, sequence (P53667 whole entry): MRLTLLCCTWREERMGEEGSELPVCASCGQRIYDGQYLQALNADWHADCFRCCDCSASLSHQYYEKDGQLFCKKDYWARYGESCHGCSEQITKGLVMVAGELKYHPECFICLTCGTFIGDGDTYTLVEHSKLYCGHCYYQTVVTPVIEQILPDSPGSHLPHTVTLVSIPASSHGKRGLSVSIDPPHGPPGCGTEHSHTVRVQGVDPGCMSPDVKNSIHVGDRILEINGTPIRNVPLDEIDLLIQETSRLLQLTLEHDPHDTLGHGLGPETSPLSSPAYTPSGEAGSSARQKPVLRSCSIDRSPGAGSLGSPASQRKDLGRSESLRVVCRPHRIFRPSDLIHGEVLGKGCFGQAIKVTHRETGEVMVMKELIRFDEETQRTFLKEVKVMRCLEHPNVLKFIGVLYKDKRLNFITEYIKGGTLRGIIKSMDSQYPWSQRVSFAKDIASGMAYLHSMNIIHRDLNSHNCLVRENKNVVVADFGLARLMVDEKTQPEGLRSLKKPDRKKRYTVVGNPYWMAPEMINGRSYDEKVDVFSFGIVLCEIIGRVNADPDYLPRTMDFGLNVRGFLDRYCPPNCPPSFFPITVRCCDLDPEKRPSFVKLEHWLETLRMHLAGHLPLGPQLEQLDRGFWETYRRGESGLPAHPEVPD
LATS1, sequence (O95835 whole entry): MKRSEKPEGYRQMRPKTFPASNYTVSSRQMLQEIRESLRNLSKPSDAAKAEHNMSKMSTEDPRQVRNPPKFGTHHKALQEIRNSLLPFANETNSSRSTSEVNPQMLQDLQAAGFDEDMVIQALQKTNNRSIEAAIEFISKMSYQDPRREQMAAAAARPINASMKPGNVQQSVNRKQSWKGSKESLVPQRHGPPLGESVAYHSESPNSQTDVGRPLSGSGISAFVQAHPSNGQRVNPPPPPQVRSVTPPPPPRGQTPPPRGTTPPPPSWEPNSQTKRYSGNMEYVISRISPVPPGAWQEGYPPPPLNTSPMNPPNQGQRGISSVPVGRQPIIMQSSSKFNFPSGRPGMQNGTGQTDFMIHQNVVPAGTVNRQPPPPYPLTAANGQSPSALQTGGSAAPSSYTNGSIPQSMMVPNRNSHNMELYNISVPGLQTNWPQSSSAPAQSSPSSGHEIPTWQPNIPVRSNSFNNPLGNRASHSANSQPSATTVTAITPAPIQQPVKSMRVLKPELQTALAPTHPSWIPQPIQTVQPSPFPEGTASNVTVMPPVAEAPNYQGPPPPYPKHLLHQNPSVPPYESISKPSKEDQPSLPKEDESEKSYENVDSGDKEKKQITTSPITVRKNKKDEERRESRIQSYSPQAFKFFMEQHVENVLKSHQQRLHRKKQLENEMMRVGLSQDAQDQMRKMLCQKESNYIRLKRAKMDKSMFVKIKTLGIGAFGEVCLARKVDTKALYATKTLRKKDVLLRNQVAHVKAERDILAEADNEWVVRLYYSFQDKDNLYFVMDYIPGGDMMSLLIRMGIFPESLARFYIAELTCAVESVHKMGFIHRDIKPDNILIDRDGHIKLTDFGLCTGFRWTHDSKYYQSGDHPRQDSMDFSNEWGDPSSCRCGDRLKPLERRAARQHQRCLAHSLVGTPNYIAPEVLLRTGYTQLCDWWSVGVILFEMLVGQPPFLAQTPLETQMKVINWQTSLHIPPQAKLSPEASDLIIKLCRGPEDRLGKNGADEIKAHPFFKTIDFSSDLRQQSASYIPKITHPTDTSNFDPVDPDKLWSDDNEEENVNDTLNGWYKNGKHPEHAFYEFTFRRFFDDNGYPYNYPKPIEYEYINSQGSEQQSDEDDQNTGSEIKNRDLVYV
EGFR(L747-E749del, A750P), sequence (P00533 other isoform, or with tags, fused parts or gaps A750P/del L747-E749): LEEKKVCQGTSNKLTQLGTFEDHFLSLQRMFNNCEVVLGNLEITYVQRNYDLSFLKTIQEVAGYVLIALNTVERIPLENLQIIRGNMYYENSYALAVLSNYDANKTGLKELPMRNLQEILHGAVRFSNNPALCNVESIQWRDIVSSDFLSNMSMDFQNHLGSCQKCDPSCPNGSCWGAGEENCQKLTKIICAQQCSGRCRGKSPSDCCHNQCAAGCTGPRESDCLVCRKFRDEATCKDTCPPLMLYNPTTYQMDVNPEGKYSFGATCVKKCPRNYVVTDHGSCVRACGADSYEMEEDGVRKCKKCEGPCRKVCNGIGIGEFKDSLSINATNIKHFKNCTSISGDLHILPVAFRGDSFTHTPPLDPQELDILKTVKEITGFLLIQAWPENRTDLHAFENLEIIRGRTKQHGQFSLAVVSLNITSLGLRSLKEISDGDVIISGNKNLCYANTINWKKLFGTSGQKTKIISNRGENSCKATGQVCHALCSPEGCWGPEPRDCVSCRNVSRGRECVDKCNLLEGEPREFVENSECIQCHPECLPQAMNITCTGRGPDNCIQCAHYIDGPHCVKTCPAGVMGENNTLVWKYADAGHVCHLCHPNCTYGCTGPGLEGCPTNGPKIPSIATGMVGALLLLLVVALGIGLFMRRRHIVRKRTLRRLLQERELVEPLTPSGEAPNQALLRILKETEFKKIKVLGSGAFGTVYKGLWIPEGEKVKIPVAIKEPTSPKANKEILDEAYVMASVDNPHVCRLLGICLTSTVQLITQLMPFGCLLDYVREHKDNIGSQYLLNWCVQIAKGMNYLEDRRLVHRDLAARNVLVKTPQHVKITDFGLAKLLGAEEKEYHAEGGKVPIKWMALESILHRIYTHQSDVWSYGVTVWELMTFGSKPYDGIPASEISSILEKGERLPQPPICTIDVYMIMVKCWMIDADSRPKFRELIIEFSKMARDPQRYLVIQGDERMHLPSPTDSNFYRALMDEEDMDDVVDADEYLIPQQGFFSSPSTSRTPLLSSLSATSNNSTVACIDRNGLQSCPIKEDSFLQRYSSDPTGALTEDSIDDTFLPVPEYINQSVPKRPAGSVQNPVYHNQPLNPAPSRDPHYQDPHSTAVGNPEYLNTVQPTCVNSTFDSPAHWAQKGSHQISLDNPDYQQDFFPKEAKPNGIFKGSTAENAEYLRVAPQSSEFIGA
SRPK2, sequence (P78362 whole entry): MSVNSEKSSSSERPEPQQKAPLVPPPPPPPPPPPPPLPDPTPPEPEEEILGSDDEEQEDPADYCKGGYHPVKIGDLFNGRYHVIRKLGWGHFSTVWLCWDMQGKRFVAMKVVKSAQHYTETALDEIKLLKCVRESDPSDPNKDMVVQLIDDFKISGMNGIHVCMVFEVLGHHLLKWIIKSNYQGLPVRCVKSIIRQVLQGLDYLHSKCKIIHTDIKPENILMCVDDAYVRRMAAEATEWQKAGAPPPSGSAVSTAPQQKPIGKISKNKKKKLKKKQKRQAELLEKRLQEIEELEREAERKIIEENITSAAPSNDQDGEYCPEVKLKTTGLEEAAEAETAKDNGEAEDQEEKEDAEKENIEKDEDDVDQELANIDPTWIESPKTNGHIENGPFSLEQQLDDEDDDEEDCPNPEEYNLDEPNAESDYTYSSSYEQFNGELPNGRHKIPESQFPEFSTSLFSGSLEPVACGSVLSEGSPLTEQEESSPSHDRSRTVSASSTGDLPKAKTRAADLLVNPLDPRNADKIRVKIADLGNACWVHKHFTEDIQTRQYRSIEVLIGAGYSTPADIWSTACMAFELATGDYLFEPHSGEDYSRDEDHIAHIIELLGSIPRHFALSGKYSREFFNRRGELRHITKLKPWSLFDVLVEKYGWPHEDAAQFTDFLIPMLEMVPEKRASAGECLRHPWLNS
MEK2, sequence (P36507 whole entry): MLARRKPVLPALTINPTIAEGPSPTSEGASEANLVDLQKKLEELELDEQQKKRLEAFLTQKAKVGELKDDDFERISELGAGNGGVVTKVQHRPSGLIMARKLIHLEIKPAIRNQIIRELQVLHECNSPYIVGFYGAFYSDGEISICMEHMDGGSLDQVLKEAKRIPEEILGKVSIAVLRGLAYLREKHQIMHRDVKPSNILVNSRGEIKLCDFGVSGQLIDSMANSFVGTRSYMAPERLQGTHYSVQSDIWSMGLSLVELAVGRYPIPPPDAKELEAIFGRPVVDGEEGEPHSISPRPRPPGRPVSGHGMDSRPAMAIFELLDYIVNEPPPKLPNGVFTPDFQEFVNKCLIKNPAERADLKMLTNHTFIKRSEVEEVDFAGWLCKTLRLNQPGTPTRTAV

CCN1CCN(Cc2ccc(Nc3nc4ccc(Oc5ccnc(NC(C)=O)c5)cc4n3C)cc2C(F)(F)F)CC1 [Compound I-2]
remaining binding at 1 µM (EPHA8): 43%
remaining binding at 1 µM (PAK2): 97%
remaining binding at 1 µM [1]: 30%
remaining binding at 1 µM (TAOK2): 0.25%
remaining binding at 1 µM (EPHA3): 52%
remaining binding at 1 µM (RAF1): 14%
remaining binding at 1 µM (EGFR(G719C)): 97%
remaining binding at 1 µM (EGFR(L858R)): 83%
remaining binding at 1 µM (PIK3CD): 72%
remaining binding at 1 µM (SIK2): 100%
remaining binding at 1 µM (CAMK2B): 92%
remaining binding at 1 µM (HIPK2): 100%
remaining binding at 1 µM (NLK): 84%
remaining binding at 1 µM (BRAF): 3.9%
remaining binding at 1 µM (PDPK1): 94%
remaining binding at 1 µM [2]: 66%
remaining binding at 1 µM (PDGFRA): 3.8%
remaining binding at 1 µM (MST3): 94%
remaining binding at 1 µM (MARK4): 98%
remaining binding at 1 µM (LATS1): 42%
remaining binding at 1 µM (PRKD1): 99%
remaining binding at 1 µM (PAK4): 94%
remaining binding at 1 µM (SRPK2): 92%
remaining binding at 1 µM (PRP4): 100%
remaining binding at 1 µM (ICK): 100%
remaining binding at 1 µM (CHEK2): 96%
remaining binding at 1 µM (NEK2): 97%
remaining binding at 1 µM (PIM1): 100%
remaining binding at 1 µM (LRRK2(G20195)): 100%
remaining binding at 1 µM (MYO3A): 96%
remaining binding at 1 µM (SIK): 95%
remaining binding at 1 µM (STK16): 59%
remaining binding at 1 µM (LIMK1): 100%
remaining binding at 1 µM (DCAMKL3): 85%
remaining binding at 1 µM (MEK2): 77%
remaining binding at 1 µM (PIP5K2B): 57%
remaining binding at 1 µM (CDKL5): 96%
percent control (FLT3(ITD, F691L)): 34%
remaining binding at 1 µM (PIP5K1A): 99%
remaining binding at 1 µM (CDKL2): 1.9%

CCN1CCN(Cc2ccc(Nc3nc4ccc(Oc5ccnc(NC(C)=O)c5)c(C)c4n3C)cc2C(F)(F)F)CC1 [Compound I-6, N-(4-(2-(4-((4-ethylpiperazin-1-yl)methyl)-3-(trifluoromethyl)phenylamino)-1,7-dimethyl-1H-benzo[d]imidazol-6-yloxy)pyridin-2-yl)acetamide]
remaining binding at 1 µM (EPHA8): 2.5%
remaining binding at 1 µM (PAK2): 98%
remaining binding at 1 µM [1]: 33%
remaining binding at 1 µM (TAOK2): 0%
remaining binding at 1 µM (EPHA3): 68%
remaining binding at 1 µM (RAF1): 16%
remaining binding at 1 µM (EGFR(G719C)): 94%
remaining binding at 1 µM (EGFR(L858R)): 97%
remaining binding at 1 µM (PIK3CD): 88%
remaining binding at 1 µM (SIK2): 97%
remaining binding at 1 µM (CAMK2B): 94%
remaining binding at 1 µM (HIPK2): 86%
remaining binding at 1 µM (NLK): 40%
remaining binding at 1 µM (BRAF): 9.2%
remaining binding at 1 µM (PDPK1): 93%
remaining binding at 1 µM [2]: 100%
remaining binding at 1 µM (PDGFRA): 4.2%
remaining binding at 1 µM (MST3): 90%
remaining binding at 1 µM (MARK4): 83%
remaining binding at 1 µM (LATS1): 95%
remaining binding at 1 µM (PRKD1): 95%
remaining binding at 1 µM (PAK4): 97%
remaining binding at 1 µM (SRPK2): 75%
remaining binding at 1 µM (PRP4): 100%
remaining binding at 1 µM (ICK): 82%
remaining binding at 1 µM (CHEK2): 90%
remaining binding at 1 µM (NEK2): 91%
remaining binding at 1 µM (PIM1): 98%
remaining binding at 1 µM (LRRK2(G20195)): 69%
remaining binding at 1 µM (MYO3A): 99%
remaining binding at 1 µM (SIK): 98%
remaining binding at 1 µM (STK16): 82%
remaining binding at 1 µM (LIMK1): 65%
remaining binding at 1 µM (DCAMKL3): 95%
remaining binding at 1 µM (MEK2): 100%
remaining binding at 1 µM (PIP5K2B): 98%
remaining binding at 1 µM (CDKL5): 92%
percent control (FLT3(ITD, F691L)): 46%
remaining binding at 1 µM (PIP5K1A): 100%
remaining binding at 1 µM (CDKL2): 0.5%

From patent publication US12522583B2, “Benzimidazole derivatives and aza-benzimidazole derivatives as Janus kinase 2 inhibitors and uses thereof” (Dana-Farber Cancer Institute, Inc., priority 2018, dated 2026)
